We go through seven compounds from ChEMBL document CHEMBL1201862, “PubChem BioAssay data set” (2004).

Among the test systems are 786-0; DU-145; HCC 2998; HT-29; Hs-578T; K562; LOX IMVI; MDA-MB-231; MDA-MB-435; MOLT-4; NCI-H460; PC-3; RPMI-8226; RXF 393; SF-295; SK-MEL-28; SNB-19; SNB-75; SR; U-251.
Common to all, as to assay: DTP human tumour cell line panel, 48 h

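All cell lines were grown in 96-well plates and treated with compound for 48 hours. At the GI50, growth is halved.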 Activity calls are given as the source filed them. Cut-off read from the data, not from the text of the source: active = GI50 up to about 1.1 µM and inactive = higher. Some results are limits rather than exact numbers.

`CCOC(=O)c1ccc(Nc2cnc3ccc(C(F)(F)F)cc3n2)cc1`: the GI50 in the assay on 786-0 is 13.9 µM (inactive); in the assay with DU-145, 18.2 µM (inactive); in the assay on HCC 2998, 12.9 µM (inactive); in the assay on HT-29, 11.9 µM (inactive); with Hs-578T it was 17.4 µM (inactive); in the assay with K562 it was 19 µM (inactive). In addition, the GI50 in the assay with LOX IMVI is 15.8 µM (inactive); in the assay on MDA-MB-231, 23.4 µM (inactive); in the assay on MDA-MB-435, 21.5 µM (inactive); with MOLT-4 it was 3.63 µM (inactive); in the assay on NCI-H460 it was 14.2 µM (inactive); with PC-3 it was 19.2 µM (inactive). The GI50 with RPMI-8226 was 27.2 µM (inactive); in the assay with RXF 393 it was 8.18 µM (inactive); in the assay with SF-295, 20.7 µM (inactive); in the assay with SK-MEL-28, 15.8 µM (inactive); in the assay on SNB-19 it was 28.1 µM (inactive); in the assay on SNB-75, 17.9 µM (inactive). In addition, the GI50 with SR was 10.3 µM (inactive); in the assay on U-251, 16.8 µM (inactive).
Take `CC(=O)Nc1ccc2c3c(cc(O)c2c1)N(C(=O)CCCC(=O)N1CC(CCl)c2c1cc(O)c1cc(NC(C)=O)ccc21)CC3CCl` (stereo not given): the 50% growth inhibitory concentration (GI50) in the assay on 786-0 is < 0.01 µM (active); in the assay on DU-145 it was < 0.01 µM (active); in the assay on HCC 2998, 0.0122 µM (active); in the assay with HT-29 it was 0.0125 µM (active); in the assay with Hs-578T, 0.0285 µM (active); in the assay with K562, < 0.01 µM (active). Also, the GI50 with LOX IMVI was < 0.01 µM (active); in the assay with MDA-MB-231 it was < 0.01 µM (active); in the assay with MDA-MB-435 it was < 0.01 µM (active); in the assay on MOLT-4, < 0.01 µM (active); in the assay on NCI-H460, < 0.01 µM (active); in the assay with PC-3, 0.0129 µM (active). Besides, the GI50 with RPMI-8226 was 0.0109 µM (active); in the assay with RXF 393, < 0.01 µM (active); in the assay with SF-295, < 0.01 µM (active); in the assay with SK-MEL-28 it was 0.0201 µM (active); in the assay with SNB-19 it was < 0.01 µM (active); in the assay with SNB-75, < 0.01 µM (active). The GI50 in the assay with SR and with U-251 was < 0.01 µM (active) each time.
For `N#Cc1cc2cc3c4c(c2oc1=O)CCCN4CCC3`, the GI50 with 786-0, with DU-145, in the assay with HCC 2998, with HT-29, in the assay with Hs-578T and with K562 was > 100 µM (inactive) throughout. Also, the GI50 in the assay on LOX IMVI, with MDA-MB-231, in the assay on MDA-MB-435, with MOLT-4, with NCI-H460 and with PC-3 was > 100 µM (inactive) each time. Also, the GI50 with RPMI-8226 is > 100 µM (inactive); in the assay with RXF 393, > 100 µM (inactive); with SF-295, > 100 µM (inactive); in the assay with SK-MEL-28 it was > 100 µM (inactive); in the assay on SNB-19 it was > 100 µM (inactive); in the assay with SNB-75 it was > 76.4 µM (inactive). Further, the GI50 with SR and in the assay with U-251 was > 100 µM (inactive) in each case.
`COc1cccc(C2C3=C(COC3=O)Oc3cc4c(cc32)OCO4)c1` (stereo not given): the GI50 is 0.0344 µM (active) in the assay with 786-0; 0.0375 µM (active) in the assay on DU-145; 0.0723 µM (active) in the assay with HCC 2998; 0.0309 µM (active) with HT-29; < 0.0176 µM (active) in the assay on Hs-578T; < 0.0135 µM (active) in the assay with K562. For the same compound, the GI50 in the assay on LOX IMVI was < 0.0155 µM (active); with MDA-MB-231 it was 0.0718 µM (active); in the assay with MDA-MB-435, < 0.01 µM (active); with MOLT-4 it was 0.0256 µM (active); with NCI-H460, 0.0267 µM (active); in the assay with PC-3 it was 0.0196 µM (active). The GI50 in the assay on RPMI-8226 is 0.0156 µM (active); in the assay on RXF 393 it was 0.0251 µM (active); in the assay on SF-295, < 0.0303 µM (active); with SK-MEL-28 it was 0.0327 µM (active); in the assay with SNB-19, 0.187 µM (active); in the assay on SNB-75, 0.0194 µM (active). Further, the GI50 is < 0.0135 µM (active) in the assay on SR and 0.0445 µM (active) with U-251.
For `Clc1cccc(Cl)c1C1ON=C(c2ccccc2)N1C12CC3CC(CC(C3)C1)C2` (stereo not given), the GI50 in the assay on 786-0 was 32.4 µM (inactive); with DU-145, 76.9 µM (inactive); in the assay with HCC 2998 it was 13.8 µM (inactive); in the assay on HT-29, 29.1 µM (inactive); in the assay with Hs-578T, 24.2 µM (inactive); in the assay on K562, 6.7 µM (inactive). Further, the GI50 in the assay on LOX IMVI was 7.26 µM (inactive); in the assay with MDA-MB-231, 10.1 µM (inactive); in the assay on MDA-MB-435, 17.9 µM (inactive); in the assay on MOLT-4, 7.31 µM (inactive); with NCI-H460, 13.7 µM (inactive); in the assay on PC-3 it was 4.11 µM (inactive). Besides, the GI50 in the assay with RPMI-8226 was 6.64 µM (inactive); in the assay with RXF 393, 39.1 µM (inactive); with SF-295, > 100 µM (inactive); with SK-MEL-28, 45 µM (inactive); with SNB-19, 67.5 µM (inactive); in the assay with SNB-75 it was 0.387 µM (active). Further, the GI50 was 5.35 µM (inactive) with SR and 62.5 µM (inactive) with U-251.
Regarding `CCCCCCCCCCCCCCCCCCNc1ccn(C2OC(COP(=O)(O)OCC3OC(n4ccc(NC(=O)CCCCCCCCCCCCCCCCC)nc4=O)C(OC(C)=O)C3OC(C)=O)C(OC(C)=O)C2OC(C)=O)c(=O)n1` (stereo not given), the GI50 was > 100 µM (inactive) with 786-0; > 100 µM (inactive) with DU-145; > 100 µM (inactive) in the assay with HCC 2998; > 100 µM (inactive) in the assay on HT-29; > 100 µM (inactive) in the assay with Hs-578T; 0.0551 µM (active) with K562. Besides, the GI50 with LOX IMVI, in the assay on MDA-MB-231, in the assay with MDA-MB-435, with MOLT-4, with NCI-H460 and with PC-3 was > 100 µM (inactive) each time. Also, the GI50 with RPMI-8226, in the assay with RXF 393, with SF-295, in the assay on SK-MEL-28, in the assay with SNB-19 and with SNB-75 was > 100 µM (inactive) each time. Besides, the GI50 with SR and with U-251 was > 100 µM (inactive) throughout.
Take `CC(=O)NCCc1c(-c2[nH]c3ccccc3c2CCNC(C)=O)[nH]c2ccccc12`: the GI50 in the assay on 786-0 was 35.7 µM (inactive); with DU-145, > 100 µM (inactive); in the assay on HCC 2998, > 100 µM (inactive); in the assay with HT-29 it was > 100 µM (inactive); with Hs-578T, 40.1 µM (inactive); in the assay on K562, > 100 µM (inactive). Further, the GI50 in the assay on LOX IMVI was > 100 µM (inactive); in the assay with MDA-MB-231, 82.4 µM (inactive); in the assay on MDA-MB-435, > 100 µM (inactive); in the assay with MOLT-4 it was > 100 µM (inactive); in the assay with NCI-H460 it was 42.2 µM (inactive); in the assay on PC-3, > 100 µM (inactive). Besides, the GI50 in the assay on RPMI-8226 is > 100 µM (inactive); in the assay with RXF 393 it was > 100 µM (inactive); in the assay with SF-295, > 100 µM (inactive); in the assay on SK-MEL-28, > 100 µM (inactive); with SNB-19, > 100 µM (inactive); in the assay with SNB-75, 47.6 µM (inactive). In addition, the GI50 in the assay with SR and with U-251 was > 100 µM (inactive) throughout.
